The test system of data set [1] is gastric secretion of patients. As to the kind of experiment: Clinical comparison of thidazine with simple histamine test. The settings on record: 20 patients; thidazine 1.5 mg/kg parenteral, histamine 0.01 mg/kg; >0.05. It is filed as in vivo, human. The source says:
Special attention was paid to side effects and the reproductibility of the secretory response after repeated administrations of the drug.

The next data set relates to Male guinea pigs. As to the kind of experiment: Chronic toxicity, daily intravenous injections in guinea pigs. Format: in vivo. The source says: Male guinea pigs weighing 200-250 g
1. Daily intravenous injections of thidazine

A further data set can be described thus: Acute toxicity, rats. Conditions: rat, in vivo, ip; male rats, 200-250 g, i/p. The text has this:
The results of the tests are generalized in Table 1.

Data set [2] concerns arterial pressure. As to the kind of experiment: Arterial pressure in rabbits. Conditions: intravenous, thidazine 0.1 mg/kg, equimolar doses of histamine and histalog.
Protocol: In a series of experiments of 18 rabbits weighing 2.5 to 3.5 kg, each having the common carotid artery in a cutaneous flap, the preparations were injected intravenously.
Data set [3] deals with arterial pressure. As to the kind of experiment: Arterial pressure in anesthetized cats. On the procedure: These experiments were performed on 11 cats weighing 2.5 to 4.0 kg and anesthetized with urethane-chlorazol mixture containing 60 mg/kg of chlorazol and 600 mg/kg of urethane. The arterial pressure was measured in the common carotid artery with the aid of a mercury pressure gauge.

The target in another data set is T1, H2 -receptors (Cavia porcellus, UniProt P47747).
T1 construct: from tissue; host or cells: isolated guinea pig auricles (atria)
As to the kind of experiment: Heart rate of isolated auricles. The settings on record: isolated guinea pig auricles; read-out: pD2 value, H2 -receptors (heart rate) (converted). On the procedure:
Changes in the heart rate were measured, dose-response curves were plotted, and pD2 values were calculated.

Where [4] appears, read: 20 mg/kg i/v daily 10 days, beginning of experiment.
Where [5] appears, read: 20 mg/kg i/v daily 10 days, end of experiment.

SMILES strings stand for the structures.

T1 sequence (P47747 whole entry): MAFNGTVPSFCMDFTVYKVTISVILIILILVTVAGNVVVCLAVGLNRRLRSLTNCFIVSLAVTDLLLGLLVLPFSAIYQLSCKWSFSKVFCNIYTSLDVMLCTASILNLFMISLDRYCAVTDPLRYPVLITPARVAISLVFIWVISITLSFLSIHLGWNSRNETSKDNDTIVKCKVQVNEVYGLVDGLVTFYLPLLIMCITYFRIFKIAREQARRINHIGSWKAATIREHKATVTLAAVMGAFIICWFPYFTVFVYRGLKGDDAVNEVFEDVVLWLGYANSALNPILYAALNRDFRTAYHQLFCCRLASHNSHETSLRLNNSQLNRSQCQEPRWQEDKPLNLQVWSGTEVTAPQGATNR

One may read the LD50 as the dose at which mortality reaches 50%. A high value points to lower toxicity. `NCCc1nnc(N)s1` [Thidazine, 2-amino-5-(2-aminoethyl)-1,3,4-thiadiazole]: in data set [1], the “Free Acidity” value was 77.0+20 units, the “HCl Output” value amounted to 12.2 ± 0.7 milliequivalents per hour, the “Peak HCl Output” value is on record as 8.9+0.3 milliequivalents and the “Total Acidity” value is on record as 90.3+22 units. Also, in the data set with Male guinea pigs (20 mg/kg i/v daily 10 days), the “Coagulability of Blood” value is recorded as “No changes”; the “Differential Blood Count” value is listed as “No significant changes”; the “ECG at beginning and end of experiment” value is reported as “No significant changes”. For the same molecule, the “Average weight in test group” value in the data set on Male guinea pigs (20 mg/kg i/v daily 10 days, Control Period (beginning)) amounted to 220.0 ± 58 g. In addition, the “Average weight in test group” value in the data set on Male guinea pigs (20 mg/kg i/v daily 10 days, Test Period (end)) was determined as 252.3 ± 50 g. Besides, in the data set with Male guinea pigs (setting [4]), the “ESR, test group” value is on record as 2 mm; the “Erythrocytes, test group” value was 3.75 ± 0.1 mln; the “Hemoglobin, test group” value came out at 11.8 ± 0.1%; the “Leukocytes, test group” value is 11360 ± 900 thous. In the data set with Male guinea pigs (setting [5]), the “ESR, test group” value worked out at 2 mm; the “Erythrocytes, test group” value amounted to 3.93 ± 0.1 mln; the “Hemoglobin, test group” value is recorded as 12.4 ± 0.3%; the “Leukocytes, test group” value turned out to be 9500 ± 835 thous. Further, in the data set with Male guinea pigs (two animal species, 1/10 LD50), the “effect upon growth and development and blood composition” value is reported as “no significant effect”; the “pathological changes in the vital organs” value was “causes no pathological changes in the vital organs”. The LD50 in “Acute toxicity, rats” worked out at 1 mg/kg. The “reduction of arterial pressure” value with arterial pressure [2] is 12 mm of mercury. In addition, the “reduction of arterial pressure” value in the data set with arterial pressure [3] (anesthetized cats, 0.1 mg/kg intravenous) is listed as 30 mm of mercury. Also, in the data set with arterial pressure [3] (cats, doses below 0.1 mg/kg intravenous), the hypotensive reaction entry is reported as “No hypotensive reaction was observed”. Besides, at H2 -receptors, the EC50 is 7.94 µM.

The record behind these values is patent US4211764A, “Gastric secretion stimulation with 2-amino-5-(2-aminoethyl)-1,3,4-thiadiozole” (priority 1978, dated 1980).
